In patent US9815850B2, “Compounds, compositions and methods” (Denali Therapeutics Inc., priority 2016, dated 2017):

Target: GST-hRIPK1 (8-327) (Homo sapiens (Human), UniProt Q13546)
Test: Fluorescent Polarization Binding (FP Binding) assay
Details: 10 nM GST-hRIPK1 (8-327), 5 nM fluorescent labeled ligand; read-out: FP IC50
Experimental: Fluorescent Polarization Binding (FP Binding) assay (Berger S. B. et al. […] Maki J. L. et al. […] Test Compounds were serially diluted in DMSO at 100 fold final concentrations in the assay (1% DMSO final). […] For negative control the enzyme addition was replaced by assay buffer only. After addition of 5 μL of fluorescent labeled ligand at twice the final concentrations in assay buffer, the plate was incubated at RT for 30 min.

GST-hRIPK1 (8-327), sequence (Q13546 8-327): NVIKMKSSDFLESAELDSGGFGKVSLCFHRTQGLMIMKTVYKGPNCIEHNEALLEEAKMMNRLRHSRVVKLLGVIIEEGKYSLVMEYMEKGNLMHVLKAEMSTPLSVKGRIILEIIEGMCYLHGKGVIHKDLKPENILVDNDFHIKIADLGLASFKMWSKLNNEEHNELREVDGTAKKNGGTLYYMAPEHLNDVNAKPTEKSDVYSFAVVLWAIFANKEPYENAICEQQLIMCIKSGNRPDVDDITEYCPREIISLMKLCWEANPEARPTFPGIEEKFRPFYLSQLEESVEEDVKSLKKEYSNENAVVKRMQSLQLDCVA

Compared with CN1C(=O)[C@H](NC(=O)c2cc(Cc3ccccc3)[nH]n2)[C@@H]2C[C@@H]2c2cccnc21 [Example 80B, 5-benzyl-N-((1aR,2R,8bS)-4-methyl-3-oxo-1,1a,2,3,4,8b-hexahydrocyclopropa[d]pyrido[2,3-b]azepin-2-yl)-1H-pyrazole-3-carboxamide], CN1C(=O)[C@@H](NC(=O)c2cc(Cc3ccccc3)on2)[C@H]2C[C@H]2c2cccnc21 [Example 81A, 5-benzyl-N-((1aS,2S,8bR)-4-methyl-3-oxo-1,1a,2,3,4,8b-hexahydrocyclopropa[d]pyrido[2,3-b]azepin-2-yl)isoxazole-3-carboxamide] is lower in IC50: greater than 3000 nM for the first, 0.1 to 1000 nM for the second. The second is the more potent here.

First: CN1C(=O)[C@H](NC(=O)c2cc(Cc3ccccc3)on2)[C@@H]2C[C@@H]2c2cccnc21 [Example 81B, 5-benzyl-N-((1aR,2R,8bS)-4-methyl-3-oxo-1,1a,2,3,4,8b-hexahydrocyclopropa[d]pyrido[2,3-b]azepin-2-yl)isoxazole-3-carboxamide]
Second: CN1C(=O)[C@@H](NC(=O)c2nn(Cc3ccccc3)cc2F)[C@H]2C[C@H]2c2cccnc21 [Example 82A, 1-benzyl-4-fluoro-N-((1aS,2S,8bR)-4-methyl-3-oxo-1,1a,2,3,4,8b-hexahydrocyclopropa[d]pyrido[2,3-b]azepin-2-yl)-1H-pyrazole-3-carboxamide]
The IC50 of the first is higher: greater than 3000 nM for the first, 0.1 to 1000 nM for the second.

First: CN1C(=O)[C@H](NC(=O)c2nn(Cc3ccccc3)cc2F)[C@@H]2C[C@@H]2c2cccnc21 [Example 82B, 1-benzyl-4-fluoro-N-((1aR,2R,8bS)-4-methyl-3-oxo-1,1a,2,3,4,8b-hexahydrocyclopropa[d]pyrido[2,3-b]azepin-2-yl)-1H-pyrazole-3-carboxamide]
Second: Cc1nc(C(=O)N[C@@H]2C(=O)N(C)c3nccnc3[C@@H]3C[C@H]23)cn1Cc1ccccc1 [Example 208]
The IC50 of the first is higher: greater than 3000 nM for the first, 0.1 to 1000 nM for the second. The second is the more potent here.

O=C(N[C@H]1C(=O)Nc2c(F)cc(F)cc2[C@H]2C[C@H]21)c1nnc(Cc2ccccc2)[nH]1 [Example 83B, 5-benzyl-N-((1aR,2R,8bS)-5,7-difluoro-3-oxo-1,1a,2,3,4,8b-hexahydrobenzo[b]cyclopropa[d]azepin-2-yl)-4H-1,2,4-triazole-3-carboxamide] and O=C(N[C@H]1C(=O)Nc2c(F)cc(F)cc2[C@H]2C[C@H]21)c1nnc(Cc2ccccc2)o1 [Example 89A, 5-benzyl-N-((1aR,2R,8bS)-5,7-difluoro-3-oxo-1,1a,2,3,4,8b-hexahydrobenzo[b]cyclopropa[d]azepin-2-yl)-1,3,4-oxadiazole-2-carboxamide] fall in the same range of IC50: 1000 to 10000 nM for the first, 1000 to 10000 nM for the second.

First: CN1C(=O)[C@@H](NC(=O)c2nc3cccc(-c4ccccc4)c3s2)COc2ccccc21 [Example 84, (S)—N-(5-methyl-4-oxo-2,3,4,5-tetrahydrobenzo[b][1,4]oxazepin-3-yl)-7-phenylbenzo[d]thiazole-2-carboxamide]
Second: CN1C(=O)[C@@H](NC(=O)c2cnc(C3(c4ccccc4)CC3)[nH]2)COc2ccccc21 [Example 88, (S)—N-(5-methyl-4-oxo-2,3,4,5-tetrahydrobenzo[b][1,4]oxazepin-3-yl)-2-(1-phenylcyclopropyl)-1H-imidazole-5-carboxamide]
The IC50 of the first is lower: 0.1 to 1000 nM for the first, greater than 3000 nM for the second. The first is the more potent here.

CN1C(=O)[C@@H](NC(=O)c2nnc(Cc3ccccc3)s2)COc2cccnc21 [Example 85, (S)-5-benzyl-N-(5-methyl-4-oxo-2,3,4,5-tetrahydropyrido[3,2-b][1,4]oxazepin-3-yl)-1,3,4-thiadiazole-2-carboxamide] and C[C@H]1Oc2cccnc2N(C)C(=O)[C@H]1NC(=O)c1nnc(Cc2ccccc2)s1 [Example 217, 5-benzyl-N-((2R,3S)-2,5-dimethyl-4-oxo-2,3,4,5-tetrahydropyrido[3,2-b][1,4]oxazepin-3-yl)-1,3,4-thiadiazole-2-carboxamide] fall in the same range of IC50: 0.1 to 1000 nM for the first, 0.1 to 1000 nM for the second.

CN1C(=O)[C@@H](NC(=O)c2ncc(Cc3ccccc3)s2)COc2cccnc21 [Example 86, (S)-5-benzyl-N-(5-methyl-4-oxo-2,3,4,5-tetrahydropyrido[3,2-b][1,4]oxazepin-3-yl)thiazole-2-carboxamide] and CN1C(=O)[C@@H](NC(=O)c2ncc(Cc3ccccn3)s2)COc2cccnc21 [Example 213, (S)—N-(5-methyl-4-oxo-2,3,4,5-tetrahydropyrido[3,2-b][1,4]oxazepin-3-yl)-5-(pyridin-2-ylmethyl)thiazole-2-carboxamide] fall in the same range of IC50: 0.1 to 1000 nM for the first, 0.1 to 1000 nM for the second.

CN1C(=O)[C@@H](NC(=O)c2cn(C3(c4ccccc4)CC3)nn2)COc2ccccc21 [Example 87, (S)—N-(5-methyl-4-oxo-2,3,4,5-tetrahydrobenzo[b][1,4]oxazepin-3-yl)-1-(1-phenylcyclopropyl)-1H-1,2,3-triazole-4-carboxamide] and COc1cccc(Cn2cc(F)c(C(=O)N[C@H]3COc4ccccc4N(C)C3=O)n2)n1 [Example 220, (S)-4-fluoro-1-((6-methoxypyridin-2-yl)methyl)-N-(5-methyl-4-oxo-2,3,4,5-tetrahydrobenzo[b][1,4]oxazepin-3-yl)-1H-pyrazole-3-carboxamide] fall in the same range of IC50: 0.1 to 1000 nM for the first, 0.1 to 1000 nM for the second.

First: O=C(N[C@@H]1C(=O)Nc2c(F)cc(F)cc2[C@@H]2C[C@H]12)c1nnc(Cc2ccccc2)o1 [Example 89B, 5-benzyl-N-((1aS,2S,8bR)-5,7-difluoro-3-oxo-1,1a,2,3,4,8b-hexahydrobenzo[b]cyclopropa[d]azepin-2-yl)-1,3,4-oxadiazole-2-carboxamide]
Second: O=C(N[C@H]1C(=O)Nc2c(F)cc(F)cc2[C@H]2C[C@H]21)c1cn(Cc2ccccc2)nn1 [Example 90A, 1-benzyl-N-((1aR,2R,8bS)-5,7-difluoro-3-oxo-1,1a,2,3,4,8b-hexahydrobenzo[b]cyclopropa[d]azepin-2-yl)-1H-1,2,3-triazole-4-carboxamide]
The IC50 of the first is lower: 0.1 to 1000 nM for the first, 1000 to 10000 nM for the second.

O=C(N[C@@H]1C(=O)Nc2c(F)cc(F)cc2[C@@H]2C[C@H]12)c1cn(Cc2ccccc2)nn1 [Example 90B, 1-benzyl-N-((1aS,2S,8bR)-5,7-difluoro-3-oxo-1,1a,2,3,4,8b-hexahydrobenzo[b]cyclopropa[d]azepin-2-yl)-1H-1,2,3-triazole-4-carboxamide] and CN1C(=O)[C@@H](NC(=O)c2nnc(Cc3ccccc3)[nH]2)[C@H]2C[C@H]2c2cc(C#N)cnc21 [Example 218, 5-benzyl-N-((1aS,2S,8bR)-7-cyano-4-methyl-3-oxo-1,1a,2,3,4,8b-hexahydrocyclopropa[d]pyrido[2,3-b]azepin-2-yl)-4H-1,2,4-triazole-3-carboxamide] fall in the same range of IC50: 0.1 to 1000 nM for the first, 0.1 to 1000 nM for the second.

O=C(N[C@H]1COc2cccnc2NC1=O)c1cc(C2(c3ccccc3)CC2)[nH]n1 [Example 91, (S)—N-(4-oxo-2,3,4,5-tetrahydropyrido[3,2-b][1,4]oxazepin-3-yl)-5-(1-phenylcyclopropyl)-1H-pyrazole-3-carboxamide] and CN1C(=O)[C@@H](NC(=O)c2noc(Cc3ccccc3)n2)COc2cccnc21 [Example 215, (S)-5-benzyl-N-(5-methyl-4-oxo-2,3,4,5-tetrahydropyrido[3,2-b][1,4]oxazepin-3-yl)-1,2,4-oxadiazole-3-carboxamide] fall in the same range of IC50: 0.1 to 1000 nM for the first, 0.1 to 1000 nM for the second.

Compared with [2H]C([2H])([2H])N1C(=O)[C@@H](NC(=O)c2cc(C3(n4nccn4)CC3)on2)CCc2cccnc21 [Example 207], CN1C(=O)[C@@H](NC(=O)c2ncc(Cc3cccc(C#N)c3)s2)CCc2cccnc21 [Example 219, (S)-5-(3-cyanobenzyl)-N-(9-methyl-8-oxo-6,7,8,9-tetrahydro-5H-pyrido[2,3-b]azepin-7-yl)thiazole-2-carboxamide] is lower in IC50: greater than 3000 nM for the first, 0.1 to 1000 nM for the second. The second is the more potent here.

CN1C(=O)[C@@H](NC(=O)c2nn(Cc3cocn3)cc2F)COc2cccnc21 [Example 209, (S)-4-fluoro-N-(5-methyl-4-oxo-2,3,4,5-tetrahydropyrido[3,2-b][1,4]oxazepin-3-yl)-1-(oxazol-4-ylmethyl)-1H-pyrazole-3-carboxamide] and CN1C(=O)[C@@H](NC(=O)c2nn(Cc3ncccn3)cc2F)COc2ccccc21 [Example 224, (S)-4-fluoro-N-(5-methyl-4-oxo-2,3,4,5-tetrahydrobenzo[b][1,4]oxazepin-3-yl)-1-(pyrimidin-2-ylmethyl)-1H-pyrazole-3-carboxamide] fall in the same range of IC50: 0.1 to 1000 nM for the first, 0.1 to 1000 nM for the second.

CN1C(=O)[C@@H](NC(=O)c2nn(Cc3ccc(F)cn3)cc2F)COc2ccccc21 [Example 214, (S)-4-fluoro-1-((5-fluoropyridin-2-yl)methyl)-N-(5-methyl-4-oxo-2,3,4,5-tetrahydrobenzo[b][1,4]oxazepin-3-yl)-1H-pyrazole-3-carboxamide] and CN1C(=O)[C@@H](NC(=O)c2nn(Cc3ccc(Cl)cn3)cc2F)COc2ccccc21 [Example 216, (S)-1-((5-chloropyridin-2-yl)methyl)-4-fluoro-N-(5-methyl-4-oxo-2,3,4,5-tetrahydrobenzo[b][1,4]oxazepin-3-yl)-1H-pyrazole-3-carboxamide] fall in the same range of IC50: 0.1 to 1000 nM for the first, 0.1 to 1000 nM for the second.

C[C@H]1Oc2cccnc2N(C)C(=O)[C@H]1NC(=O)c1nnc(C(F)(F)c2ccccc2)o1 [Example 221, 5-(difluoro(phenyl)methyl)-N-((2R,3S)-2,5-dimethyl-4-oxo-2,3,4,5-tetrahydropyrido[3,2-b][1,4]oxazepin-3-yl)-1,3,4-oxadiazole-2-carboxamide] and C[C@H]1Oc2cccnc2N(C)C(=O)[C@H]1NC(=O)c1noc(Cc2ccccc2)n1 [Example 222, 5-benzyl-N-((2R,3S)-2,5-dimethyl-4-oxo-2,3,4,5-tetrahydropyrido[3,2-b][1,4]oxazepin-3-yl)-1,2,4-oxadiazole-3-carboxamide] fall in the same range of IC50: 0.1 to 1000 nM for the first, 0.1 to 1000 nM for the second.

In the case of CN1C(=O)[C@@H](NC(=O)c2nnc(Cc3ccc(F)cc3)o2)[C@H]2C[C@H]2c2nccnc21 [Example 223, 5-(4-fluorobenzyl)-N-((7S,7aS,8aR)-5-methyl-6-oxo-5,6,7,7a,8,8a-hexahydrocyclopropa[d]pyrazino[2,3-b]azepin-7-yl)-1,3,4-oxadiazole-2-carboxamide], the IC50 is reported as 0.1 to 1000 nM.
